Laboratory results from patent US20240150290A1, “HETEROCYCLIC P2Y14 RECEPTOR ANTAGONISTS” (priority 2021, published 2024).
Like-named read-outs stand apart in the source and are kept apart here. Marks after values point to notes of the source that are not given here.

Tests used:
[1] = cited from earlier work
[2] = Table 4; Yu et al.; cited from earlier work
[3] = Table 4; Yu et al.; cited from earlier work; remark: listed apart in the source
[4] = target: T1, CYP1A2 (Homo sapiens, UniProt P05177); details: Table 4; Yu et al.; cited from earlier work
T1 sequence (P05177 1-516): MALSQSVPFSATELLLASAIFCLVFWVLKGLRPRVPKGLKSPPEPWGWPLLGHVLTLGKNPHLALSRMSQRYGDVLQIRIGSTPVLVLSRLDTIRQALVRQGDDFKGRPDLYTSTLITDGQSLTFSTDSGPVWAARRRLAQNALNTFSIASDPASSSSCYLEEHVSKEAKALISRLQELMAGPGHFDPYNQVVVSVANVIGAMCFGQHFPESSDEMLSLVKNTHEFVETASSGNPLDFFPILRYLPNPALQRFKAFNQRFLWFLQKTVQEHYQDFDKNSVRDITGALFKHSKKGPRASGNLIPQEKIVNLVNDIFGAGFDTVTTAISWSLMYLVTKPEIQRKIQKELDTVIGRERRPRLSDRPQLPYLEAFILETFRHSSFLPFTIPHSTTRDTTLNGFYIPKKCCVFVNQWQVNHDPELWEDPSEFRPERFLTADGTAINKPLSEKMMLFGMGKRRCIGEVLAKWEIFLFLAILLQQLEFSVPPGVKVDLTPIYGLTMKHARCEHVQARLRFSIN

[5] = target: T2, CYP2C9 (Homo sapiens, UniProt P11712); details: Table 4; Yu et al.; cited from earlier work
T2 sequence (P11712 whole entry): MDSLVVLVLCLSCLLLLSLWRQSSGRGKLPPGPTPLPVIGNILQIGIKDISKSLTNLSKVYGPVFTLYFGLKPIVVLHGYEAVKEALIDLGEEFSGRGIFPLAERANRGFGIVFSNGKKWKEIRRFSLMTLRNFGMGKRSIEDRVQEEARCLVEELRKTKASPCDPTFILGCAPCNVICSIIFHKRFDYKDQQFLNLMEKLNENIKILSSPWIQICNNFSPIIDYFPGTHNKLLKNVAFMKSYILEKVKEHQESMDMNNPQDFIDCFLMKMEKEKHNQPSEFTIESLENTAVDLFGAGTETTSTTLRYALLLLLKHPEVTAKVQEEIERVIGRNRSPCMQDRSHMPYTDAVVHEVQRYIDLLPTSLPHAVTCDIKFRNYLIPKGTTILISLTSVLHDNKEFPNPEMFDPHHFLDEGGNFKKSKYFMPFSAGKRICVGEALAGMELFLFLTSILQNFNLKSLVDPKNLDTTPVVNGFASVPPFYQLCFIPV

[6] = target: T3, CYP2C19 (Homo sapiens, UniProt P33261); details: Table 4; Yu et al.; cited from earlier work
T3 sequence (P33261 whole entry): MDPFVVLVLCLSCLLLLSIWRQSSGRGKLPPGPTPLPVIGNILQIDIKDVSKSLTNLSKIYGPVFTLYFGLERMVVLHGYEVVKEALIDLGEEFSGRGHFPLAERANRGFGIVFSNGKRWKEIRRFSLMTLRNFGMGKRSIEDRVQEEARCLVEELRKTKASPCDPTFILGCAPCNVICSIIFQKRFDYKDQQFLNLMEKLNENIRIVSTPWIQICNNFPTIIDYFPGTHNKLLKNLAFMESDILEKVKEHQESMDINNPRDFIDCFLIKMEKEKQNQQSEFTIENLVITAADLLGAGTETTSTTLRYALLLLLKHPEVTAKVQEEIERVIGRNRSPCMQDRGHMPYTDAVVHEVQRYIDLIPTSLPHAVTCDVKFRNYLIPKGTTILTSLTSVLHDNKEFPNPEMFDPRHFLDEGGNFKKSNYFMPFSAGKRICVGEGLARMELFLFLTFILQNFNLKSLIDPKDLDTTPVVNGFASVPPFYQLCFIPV

[7] = target: T4, CYP2D6 (Homo sapiens, UniProt P10635); details: Table 4; Yu et al.; cited from earlier work
T4 sequence (P10635 whole entry): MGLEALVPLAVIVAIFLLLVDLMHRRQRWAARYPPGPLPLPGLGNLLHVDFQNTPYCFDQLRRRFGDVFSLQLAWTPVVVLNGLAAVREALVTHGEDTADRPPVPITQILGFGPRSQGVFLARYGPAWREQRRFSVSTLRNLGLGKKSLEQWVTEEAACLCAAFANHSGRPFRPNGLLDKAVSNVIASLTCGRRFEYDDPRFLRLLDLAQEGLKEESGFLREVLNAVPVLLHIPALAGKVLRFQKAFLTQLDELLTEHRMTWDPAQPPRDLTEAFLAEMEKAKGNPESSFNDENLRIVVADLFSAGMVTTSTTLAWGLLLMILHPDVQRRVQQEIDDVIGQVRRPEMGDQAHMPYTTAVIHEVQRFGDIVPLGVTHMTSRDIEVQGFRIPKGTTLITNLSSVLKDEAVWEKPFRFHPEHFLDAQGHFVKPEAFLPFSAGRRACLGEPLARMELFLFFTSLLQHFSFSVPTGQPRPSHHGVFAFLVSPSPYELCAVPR

[8] = target: T5, CYP3A4 (Homo sapiens, UniProt P08684); details: Table 4; Yu et al.; cited from earlier work
T5 sequence (P08684 whole entry): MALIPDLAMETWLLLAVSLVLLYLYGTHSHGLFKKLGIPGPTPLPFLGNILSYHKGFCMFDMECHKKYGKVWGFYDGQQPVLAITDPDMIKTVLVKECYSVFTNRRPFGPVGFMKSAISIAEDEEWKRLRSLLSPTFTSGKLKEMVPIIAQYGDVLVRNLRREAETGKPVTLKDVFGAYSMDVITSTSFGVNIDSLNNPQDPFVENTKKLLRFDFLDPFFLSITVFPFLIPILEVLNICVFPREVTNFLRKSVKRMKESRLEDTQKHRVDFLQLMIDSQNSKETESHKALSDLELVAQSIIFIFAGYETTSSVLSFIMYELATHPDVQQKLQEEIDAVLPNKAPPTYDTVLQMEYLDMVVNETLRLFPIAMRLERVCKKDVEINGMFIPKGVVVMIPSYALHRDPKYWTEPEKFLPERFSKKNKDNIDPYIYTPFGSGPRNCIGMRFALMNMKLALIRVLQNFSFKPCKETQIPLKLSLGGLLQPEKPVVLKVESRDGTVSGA

[9] = human, cited from earlier work
[10] = rat; Table 4; Yu et al.; cited from earlier work
[11] = mouse, cited from earlier work
[12] = human, cited from earlier work; remark: listed apart in the source
[13] = rat; Table 4; Yu et al.; cited from earlier work; remark: listed apart in the source
[14] = mouse, cited from earlier work; remark: listed apart in the source
[15] = i.v. administration in rat, 0.5 mg/kg; Yu et al.; cited from earlier work
[16] = target: T6, hP2Y14R (Homo sapiens, UniProt Q15391); test: Inhibition of fluorescent antagonist binding in whole hP2Y14R-expressing CHO cells (flow cytometry)
T6 construct: expressed in transfected cells; host or cells: CHO cells
T6 sequence (Q15391 1-338): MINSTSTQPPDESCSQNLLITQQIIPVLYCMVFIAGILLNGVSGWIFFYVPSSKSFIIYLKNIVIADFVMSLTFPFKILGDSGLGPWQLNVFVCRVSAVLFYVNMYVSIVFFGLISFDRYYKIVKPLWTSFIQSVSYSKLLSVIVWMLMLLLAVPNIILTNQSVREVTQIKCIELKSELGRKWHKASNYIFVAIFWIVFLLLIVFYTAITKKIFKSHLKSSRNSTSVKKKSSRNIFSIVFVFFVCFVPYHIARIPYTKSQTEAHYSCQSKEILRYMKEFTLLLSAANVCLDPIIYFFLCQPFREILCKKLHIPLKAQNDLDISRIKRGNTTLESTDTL

[17] = target: T6, hP2Y14R; details: Table 2; data from Jung et al. and Mufti et al.; cited from earlier work
[18] = Aqueous solubility, pION method
[19] = target: T7, mP2Y14R (Mus musculus, UniProt Q9ESG6); parameters: expressed in transfected cells; details: Table 2; data from Jung et al. and Mufti et al.; cited from earlier work
T7 sequence (Q9ESG6 1-338): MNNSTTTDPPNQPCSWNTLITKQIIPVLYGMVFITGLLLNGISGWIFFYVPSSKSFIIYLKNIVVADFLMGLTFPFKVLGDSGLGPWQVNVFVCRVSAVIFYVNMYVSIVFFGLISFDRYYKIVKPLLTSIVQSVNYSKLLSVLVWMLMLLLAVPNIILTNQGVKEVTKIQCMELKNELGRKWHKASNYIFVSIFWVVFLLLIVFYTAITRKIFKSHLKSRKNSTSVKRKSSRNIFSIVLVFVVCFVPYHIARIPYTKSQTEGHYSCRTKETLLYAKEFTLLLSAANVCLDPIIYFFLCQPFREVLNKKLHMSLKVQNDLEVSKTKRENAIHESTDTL

[20] = HPLC-based lipophilicity (Log D7.4)
[21] = target: T7, mP2Y14R; test: cell-based; details: read-out: mP2Y14R, IC50; Table 6; whole mP2Y14R-HEK cells, 200 nM of 3, mean ± SEM, n = 3-6
Source text: Desirably, receptor affinity is maintained across species, facilitating performance in in vivo preclinical testing in small animals, with the mouse being the most commonly used species in initial evaluation.

[22] = target: T1, CYP1A2; test: CYP1A2 inhibition; assay type: in vitro ADME; details: Table 7
[23] = target: T3, CYP2C19; test: CYP2C19 inhibition; assay type: in vitro ADME; details: Table 7
[24] = target: T4, CYP2D6; test: CYP2D6 inhibition; assay type: in vitro ADME; details: Table 7
[25] = target: T5, CYP3A4; test: CYP3A4 inhibition; assay type: in vitro ADME; details: Table 7
[26] = Microsomal stability, rat; assay type: in vitro ADME; details: Table 7
[27] = Microsomal stability, mouse; assay type: in vitro ADME; details: Table 7
[28] = target: hERG (Homo sapiens, UniProt Q12809); test: hERG inhibition, fluorescent method; assay type: binding; details: Table 7
hERG, sequence (Q12809 whole entry): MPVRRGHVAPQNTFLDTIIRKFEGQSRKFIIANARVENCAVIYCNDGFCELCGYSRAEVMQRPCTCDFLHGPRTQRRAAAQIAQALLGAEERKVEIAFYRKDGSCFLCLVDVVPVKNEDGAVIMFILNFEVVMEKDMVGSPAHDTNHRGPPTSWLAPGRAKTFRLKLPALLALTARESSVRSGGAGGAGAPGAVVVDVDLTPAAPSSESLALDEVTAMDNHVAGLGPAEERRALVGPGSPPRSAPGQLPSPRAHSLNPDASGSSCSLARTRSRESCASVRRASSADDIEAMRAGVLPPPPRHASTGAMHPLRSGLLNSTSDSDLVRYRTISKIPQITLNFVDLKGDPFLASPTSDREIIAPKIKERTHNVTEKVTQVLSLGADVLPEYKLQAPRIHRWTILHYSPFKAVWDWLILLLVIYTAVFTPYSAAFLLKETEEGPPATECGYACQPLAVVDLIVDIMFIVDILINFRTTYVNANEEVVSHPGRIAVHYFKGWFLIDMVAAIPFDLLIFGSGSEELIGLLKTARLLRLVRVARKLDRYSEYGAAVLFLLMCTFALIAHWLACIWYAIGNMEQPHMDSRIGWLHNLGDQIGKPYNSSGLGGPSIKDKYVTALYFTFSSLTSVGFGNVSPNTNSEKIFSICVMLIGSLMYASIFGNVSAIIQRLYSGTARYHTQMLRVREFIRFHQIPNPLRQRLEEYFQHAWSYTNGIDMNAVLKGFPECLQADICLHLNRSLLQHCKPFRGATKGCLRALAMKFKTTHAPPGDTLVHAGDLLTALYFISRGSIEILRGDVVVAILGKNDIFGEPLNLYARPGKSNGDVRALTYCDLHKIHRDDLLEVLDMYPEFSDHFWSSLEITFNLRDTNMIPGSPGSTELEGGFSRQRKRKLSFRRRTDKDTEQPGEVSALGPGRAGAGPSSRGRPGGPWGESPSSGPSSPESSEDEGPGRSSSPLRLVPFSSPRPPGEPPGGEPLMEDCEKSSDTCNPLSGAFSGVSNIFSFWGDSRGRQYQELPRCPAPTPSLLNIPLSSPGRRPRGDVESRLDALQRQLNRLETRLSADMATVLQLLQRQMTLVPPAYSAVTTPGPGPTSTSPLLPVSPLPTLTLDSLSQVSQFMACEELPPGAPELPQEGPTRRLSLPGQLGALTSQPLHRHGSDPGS

[29] = In vivo half-life by administration mode (Table 7)
[30] = Plasma protein binding, mouse; assay type: in vitro ADME
[31] = Plasma protein binding, rat; assay type: in vitro ADME
[32] = Plasma protein binding, human; assay type: in vitro ADME
[33] = target: T2, CYP2C9; test: CYP2C9 inhibition
[34] = Plasma stability, rat; details: Table 7
[35] = Plasma stability, mouse; details: Table 7
[36] = Microsomal stability, human
[37] = Stability in simulated gastric fluid; details: Table 7
[38] = Stability in simulated intestinal fluid; details: Table 7
[39] = target: hERG ion channel (Homo sapiens, UniProt Q12809); test: hERG ion channel block, patch clamp assay
hERG ion channel, sequence (Q12809 whole entry): as above

[40] = tested on: CCI-induced mechano-allodynia; test: Chronic constriction injury (CCI) mouse model of neuropathic pain; details: 10 μmol/kg, i.p.
[41] = Table 6, fluorescent hP2Y14R antagonist (3), read-out: hP2Y14R, IC50
[42] = first value of the cell (mode not given; by the column of 4: i.p.)
[43] = second value of the cell (mode not given; by the column of 4: i.v., 0.5 mg/kg)

SMILES	Solubility (ug/mL) pH 4 [18] [ug/mL]	Solubility (ug/mL) pH 7.4 [18] [ug/mL]	IC50 [16, 41] [µM]	IC50 [21] [µM]	IC50 [22] [µM]	IC50 [23] [µM]	IC50 [24] [µM]	IC50 [25] [µM]	Microsomal stability (t1/2, min) [26] [min]	Microsomal stability (t1/2, min) [27] [min]	IC50 [28] [µM]	t1/2 (h), administration mode [29, 42] [h]	t1/2 (h), administration mode [29, 43] [h]	Mouse, % bound (±SD) [30] [%]	Rat, % bound (±SD) [31] [%]	Human, % bound (±SD) [32] [%]	IC50 [33] [µM]	Plasma stability (% remaining at 120 min) [34] [%]	Plasma stability (% remaining at 120 min) [35] [%]	Simulated intestinal fluid (% remaining at 120 min) [38] [%]	other results
NC(=O)c1ccc(-c2cc(C(=O)O)cc(-n3cc(-c4ccc(C(F)(F)F)cc4)nn3)c2)cc1 [Compound 5]																					aqueous solubility (pH 7.4, μg/mL) ([1]; mean ± SD, Table 4, Yu et al.): 138 ± 4 μg/mL; Simulated intestinal fluid (t1/2, min) [2]: >240 min; Simulated gastric fluid (t1/2, min) [3]: >240 min; IC50 [4]: > 30 µM; IC50 [5]: > 30 µM; IC50 [6]: > 30 µM; IC50 [7]: > 30 µM; IC50 [8]: > 30 µM; Plasma stability (t1/2, min) ([9]; Table 4, Yu et al.): >240 (h); >240 (r); min; Plasma stability (t1/2, min) [10]: >240 (h); >240 (r); min; Plasma stability (t1/2, min) ([11]; Table 4, Yu et al.): >240 (m) min; Microsomal stability (t1/2, min) ([12]; Table 4, Yu et al.): 145 (h) min; Microsomal stability (t1/2, min) [13]: 108 min; Microsomal stability (t1/2, min) ([14]; Table 4, Yu et al.): 145 min; t1/2 [15]: 0.20 h
O=C(O)c1cc(-c2ccc(C34CCN(CC3)CC4)cc2)c2ccc(-c3ccc(C(F)(F)F)cc3)cc2c1 [Compound 4]	1.50 ± 0.04	0.55 ± 0.02																			IC50 ([16]; Example 5 table, whole cell fluorescent binding assay, read-out: IC50): 0.02 ± 0.0044 µM; IC50 ([16]; Table 2, whole hP2Y14R-CHO cells, 20 nM fluorescent antagonist 3, mean+SEM, n = 3-6, read-out: IC50): 0.02 ± 0.0044 µM; IC50 [17]: 0.169 ± 0.042 µM; aqueous solubility (pH 4.0, μg/mL) ([1]; pH 4.0, Table 7, Jung et al. 2020): 14.3 ± 0.5 μg/mL; aqueous solubility (pH 7.4, μg/mL) ([1]; Table 7, Jung et al. 2020): 0.44 ± 0.06 μg/mL; Plasma stability (% remaining at 120 min) ([9]; Table 7, Jung et al. 2020): 100%; Plasma stability (% remaining at 120 min) ([11]; Table 7, Jung et al. 2020): 100 (m) %; Microsomal stability (t1/2, min) ([12]; Table 7, Jung et al. 2020): 8 >240 (h) min; Microsomal stability (t1/2, min) ([14]; Table 7, Jung et al. 2020): 67.2 min; IC50 [19]: 0.384 ± 0.088 µM; Log D7.4 ([20]; calculated from retention factor difference between ligands and 1 (k = 3.41)): 4.18 ± 0.85^f
O=C(O)c1cc(-c2ccc([C@H]3C[C@H]4C[C@@H]3CN4)cc2)c2ccc(-c3ccc(C(F)(F)F)cc3)cc2c1 [Compound 114, 4-(4-((1S,4S,5S)-2-Azabicyclo[2.2.1]heptan-5-yl)phenyl)-7-(4-(trifluoromethyl)phenyl)-2-naphthoic acid]	1.22 ± 0.05	0.77 ± 0.21	0.00311 ± 0.00062	0.0339 ± 0.0046	> 30	> 30	> 30	> 30	91.0	243	> 30	8.94	7.24	99.76 ± 0.03	99.79 ± 0.02	87.98 ± 10.29	> 30	82.8	100	99.1	Microsomal stability (t1/2, min) ([36]; Table 7): 280 (h) min; chromatographic logD ([20]; pH 7.4): 1.92 ± 0.09; Simulated gastric fluid (% remaining at 120 min) ([37]; aqueous acid stability determined by NMR): 100^e %; IC50 [39]: > 30 µM; side effects [40]: No obvious side effects were observed; reversal of mechano-allodynia (figure legend) ([40]; day 7 post-injury): reversed the established mechano-allodynia
O=C(O)c1cc(-c2ccc([C@@H]3C[C@@H]4C[C@H]3NC4=O)cc2)c2ccc(-c3ccc(C(F)(F)F)cc3)cc2c1 [Compound 121, 4-(4-((1R,4R,6S)-3-Oxo-2-azabicyclo[2.2.1]heptan-6-yl)phenyl)-7-(4-(trifluoromethyl)phenyl)-2-naphthoic acid]			0.0373 ± 0.006	0.0429 ± 0.007	> 30	> 30	> 30	> 30	89.4	> 1000	> 30	4.59	2.11	99.74 ± 0.04	96.18 ± 0.32	98.89 ± 0.50	> 30	74.7	74.1	100	half-life ([36]; liver microsomes): 14.2 h; Simulated gastric fluid (% remaining at 120 min) [37]: 59.3%
